Laboratory results reported in the kinase profiling compilation of Christmann-Franck et al. (2016).

Tests used:
Test in all cases: KINOMEscan competition binding
Details in all cases: compound 10.0 µM
ACVR2A (human) = ACVR2A (human) (UniProt P27037)
AKT2 (human) = AKT2 (human) (UniProt P31751)
ANKK1 (human) = ANKK1 (human) (UniProt Q8NFD2)
AURKB (human) = AURKB (human) (UniProt Q96GD4)
CAMK2A (human) = CAMK2A (human) (UniProt Q9UQM7)
CDK15 (human) = CDK15 (human) (UniProt Q96Q40)
CDK17 (human) = CDK17 (human) (UniProt Q00537)
CDK5 (human) = CDK5 (human) (UniProt Q00535)
CLK2 (human) = CLK2 (human) (UniProt P49760)
CSNK2A1 (human) = CSNK2A1 (human) (UniProt P68400)
DMPK (human) = DMPK (human) (UniProt Q09013)
[1] = system: EIF2AK4 KD2 (human), Q9P2K8 [S808G]
EPHB1 (human) = EPHB1 (human) (UniProt P54762)
ERBB2 (human) = ERBB2 (human) (UniProt P04626)
ERBB4 (human) = ERBB4 (human) (UniProt Q15303)
HCK (human) = HCK (human) (UniProt P08631)
LATS2 (human) = LATS2 (human) (UniProt Q9NRM7)
LCK (human) = LCK (human) (UniProt P06239)
MAP2K4 (human) = MAP2K4 (human) (UniProt P45985)
MAP3K11 (human) = MAP3K11 (human) (UniProt Q16584)
MAP3K9 (human) = MAP3K9 (human) (UniProt P80192)
MAP4K5 (human) = MAP4K5 (human) (UniProt Q9Y4K4)
MAPK15 (human) = MAPK15 (human) (UniProt Q8TD08)
MAPK9 (human) = MAPK9 (human) (UniProt P45984)
MINK1 (human) = MINK1 (human) (UniProt Q8N4C8)
MKNK2 (human) = MKNK2 (human) (UniProt Q9HBH9)
MUSK (human) = MUSK (human) (UniProt O15146)
MYLK (human) = MYLK (human) (UniProt Q15746)
NEK1 (human) = NEK1 (human) (UniProt Q96PY6)
NTRK1 (human) = NTRK1 (human) (UniProt P04629)
NTRK2 (human) = NTRK2 (human) (UniProt Q16620)
PAK1 (human) = PAK1 (human) (UniProt Q13153)
PDGFRB (human) = PDGFRB (human) (UniProt P09619)
PRKACA (human) = PRKACA (human) (UniProt P17612)
PRKACB (human) = PRKACB (human) (UniProt P22694)
RPS6KA6 KD1 (human) = RPS6KA6 KD1 (human) (UniProt Q9UK32)
SRPK1 (human) = SRPK1 (human) (UniProt Q96SB4)
SRPK2 (human) = SRPK2 (human) (UniProt P78362)
STK17A (human) = STK17A (human) (UniProt Q9UEE5)
STK33 (human) = STK33 (human) (UniProt Q9BYT3)

DMPK (human), sequence (Q09013 whole entry, looked up): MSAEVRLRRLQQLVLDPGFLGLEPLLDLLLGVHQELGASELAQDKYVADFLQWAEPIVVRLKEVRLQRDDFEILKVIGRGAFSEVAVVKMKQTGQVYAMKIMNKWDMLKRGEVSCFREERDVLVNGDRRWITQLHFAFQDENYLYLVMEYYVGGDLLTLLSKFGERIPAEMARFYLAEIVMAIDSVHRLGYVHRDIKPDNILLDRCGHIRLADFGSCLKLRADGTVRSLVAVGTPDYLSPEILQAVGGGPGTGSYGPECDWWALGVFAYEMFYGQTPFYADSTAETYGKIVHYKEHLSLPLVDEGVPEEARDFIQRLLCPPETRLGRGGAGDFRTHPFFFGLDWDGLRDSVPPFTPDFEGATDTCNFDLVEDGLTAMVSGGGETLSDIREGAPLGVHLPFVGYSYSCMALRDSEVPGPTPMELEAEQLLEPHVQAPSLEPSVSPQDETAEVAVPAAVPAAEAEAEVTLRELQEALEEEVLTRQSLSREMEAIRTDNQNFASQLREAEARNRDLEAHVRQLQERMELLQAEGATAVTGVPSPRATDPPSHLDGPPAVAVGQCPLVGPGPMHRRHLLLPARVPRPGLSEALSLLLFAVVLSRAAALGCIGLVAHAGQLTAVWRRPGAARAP
ERBB4 (human), sequence (Q15303 whole entry, looked up): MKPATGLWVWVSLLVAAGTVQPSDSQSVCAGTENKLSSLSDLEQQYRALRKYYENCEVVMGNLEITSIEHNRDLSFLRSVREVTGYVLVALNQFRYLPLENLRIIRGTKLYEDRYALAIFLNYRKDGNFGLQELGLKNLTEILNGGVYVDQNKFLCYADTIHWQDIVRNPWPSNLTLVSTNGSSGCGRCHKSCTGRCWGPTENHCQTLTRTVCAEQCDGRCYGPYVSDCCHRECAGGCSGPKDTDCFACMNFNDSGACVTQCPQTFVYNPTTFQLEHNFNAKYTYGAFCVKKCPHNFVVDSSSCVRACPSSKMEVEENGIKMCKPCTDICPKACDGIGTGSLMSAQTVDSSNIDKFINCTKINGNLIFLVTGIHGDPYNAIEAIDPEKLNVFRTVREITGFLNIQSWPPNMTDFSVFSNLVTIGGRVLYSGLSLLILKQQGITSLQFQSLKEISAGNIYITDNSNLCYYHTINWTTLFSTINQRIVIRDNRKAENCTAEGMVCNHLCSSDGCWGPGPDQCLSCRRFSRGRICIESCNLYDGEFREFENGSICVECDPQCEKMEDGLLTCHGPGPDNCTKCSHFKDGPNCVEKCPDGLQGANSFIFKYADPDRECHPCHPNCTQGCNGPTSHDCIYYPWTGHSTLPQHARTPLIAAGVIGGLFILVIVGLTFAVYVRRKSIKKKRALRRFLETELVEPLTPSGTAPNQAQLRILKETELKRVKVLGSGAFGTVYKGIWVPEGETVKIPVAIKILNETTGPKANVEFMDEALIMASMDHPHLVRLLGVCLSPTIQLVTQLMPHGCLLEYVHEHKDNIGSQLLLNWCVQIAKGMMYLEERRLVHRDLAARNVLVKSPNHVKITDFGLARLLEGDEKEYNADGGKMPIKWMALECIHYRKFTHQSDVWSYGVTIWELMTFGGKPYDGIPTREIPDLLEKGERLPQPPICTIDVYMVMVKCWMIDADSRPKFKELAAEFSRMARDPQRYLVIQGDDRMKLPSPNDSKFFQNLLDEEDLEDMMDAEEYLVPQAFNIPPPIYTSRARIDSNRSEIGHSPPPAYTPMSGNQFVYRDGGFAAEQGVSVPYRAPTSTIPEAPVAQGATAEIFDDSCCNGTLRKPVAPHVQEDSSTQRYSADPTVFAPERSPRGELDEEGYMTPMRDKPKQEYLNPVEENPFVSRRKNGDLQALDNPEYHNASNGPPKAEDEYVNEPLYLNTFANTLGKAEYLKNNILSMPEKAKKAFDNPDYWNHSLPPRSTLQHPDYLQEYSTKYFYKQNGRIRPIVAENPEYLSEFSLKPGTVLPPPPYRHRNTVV
MAP4K5 (human), sequence (Q9Y4K4 whole entry, looked up): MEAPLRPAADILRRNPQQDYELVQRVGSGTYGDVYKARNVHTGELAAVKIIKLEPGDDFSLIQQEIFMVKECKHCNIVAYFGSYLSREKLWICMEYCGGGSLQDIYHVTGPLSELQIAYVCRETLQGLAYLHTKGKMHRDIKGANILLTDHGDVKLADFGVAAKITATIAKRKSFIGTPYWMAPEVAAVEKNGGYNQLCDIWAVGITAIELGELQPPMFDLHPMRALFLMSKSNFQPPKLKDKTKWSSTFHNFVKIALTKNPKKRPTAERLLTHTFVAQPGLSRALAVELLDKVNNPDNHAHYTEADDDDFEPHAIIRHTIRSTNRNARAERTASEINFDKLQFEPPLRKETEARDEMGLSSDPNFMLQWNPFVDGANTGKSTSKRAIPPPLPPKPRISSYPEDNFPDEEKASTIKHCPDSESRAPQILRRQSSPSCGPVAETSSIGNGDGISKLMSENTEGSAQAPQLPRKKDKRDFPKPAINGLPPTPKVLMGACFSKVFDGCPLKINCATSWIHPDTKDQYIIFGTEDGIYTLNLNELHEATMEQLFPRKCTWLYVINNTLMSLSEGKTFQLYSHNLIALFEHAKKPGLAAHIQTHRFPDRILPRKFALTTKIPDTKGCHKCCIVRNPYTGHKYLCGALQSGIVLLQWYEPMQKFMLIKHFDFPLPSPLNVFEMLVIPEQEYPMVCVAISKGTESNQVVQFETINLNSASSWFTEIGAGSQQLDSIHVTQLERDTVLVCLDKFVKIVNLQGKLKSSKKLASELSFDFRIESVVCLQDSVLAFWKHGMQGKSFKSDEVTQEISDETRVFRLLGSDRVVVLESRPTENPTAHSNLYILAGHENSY
CLK2 (human), sequence (P49760 whole entry, looked up): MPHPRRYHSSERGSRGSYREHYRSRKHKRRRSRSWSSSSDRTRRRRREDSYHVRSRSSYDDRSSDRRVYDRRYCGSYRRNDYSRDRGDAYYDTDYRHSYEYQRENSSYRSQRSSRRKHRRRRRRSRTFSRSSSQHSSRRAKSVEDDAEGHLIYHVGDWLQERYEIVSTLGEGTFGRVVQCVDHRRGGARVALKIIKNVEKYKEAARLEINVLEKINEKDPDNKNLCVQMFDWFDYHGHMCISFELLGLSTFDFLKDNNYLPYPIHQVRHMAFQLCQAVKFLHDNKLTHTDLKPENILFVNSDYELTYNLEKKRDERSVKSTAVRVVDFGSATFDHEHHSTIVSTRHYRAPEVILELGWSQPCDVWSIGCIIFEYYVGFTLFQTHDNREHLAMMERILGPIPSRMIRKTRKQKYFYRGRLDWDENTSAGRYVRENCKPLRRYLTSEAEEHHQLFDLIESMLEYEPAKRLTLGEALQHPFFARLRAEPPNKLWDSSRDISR
AURKB (human), sequence (Q96GD4 whole entry, looked up): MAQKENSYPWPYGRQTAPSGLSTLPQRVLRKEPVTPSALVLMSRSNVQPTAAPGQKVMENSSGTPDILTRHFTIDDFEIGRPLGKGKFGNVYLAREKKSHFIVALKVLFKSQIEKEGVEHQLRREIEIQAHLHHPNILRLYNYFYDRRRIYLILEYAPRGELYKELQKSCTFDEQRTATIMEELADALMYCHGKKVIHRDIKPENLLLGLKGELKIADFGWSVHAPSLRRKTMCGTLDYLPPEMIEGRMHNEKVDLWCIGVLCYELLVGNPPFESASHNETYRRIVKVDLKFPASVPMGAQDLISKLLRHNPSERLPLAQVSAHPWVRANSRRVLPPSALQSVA
PDGFRB (human), sequence (P09619 whole entry, looked up): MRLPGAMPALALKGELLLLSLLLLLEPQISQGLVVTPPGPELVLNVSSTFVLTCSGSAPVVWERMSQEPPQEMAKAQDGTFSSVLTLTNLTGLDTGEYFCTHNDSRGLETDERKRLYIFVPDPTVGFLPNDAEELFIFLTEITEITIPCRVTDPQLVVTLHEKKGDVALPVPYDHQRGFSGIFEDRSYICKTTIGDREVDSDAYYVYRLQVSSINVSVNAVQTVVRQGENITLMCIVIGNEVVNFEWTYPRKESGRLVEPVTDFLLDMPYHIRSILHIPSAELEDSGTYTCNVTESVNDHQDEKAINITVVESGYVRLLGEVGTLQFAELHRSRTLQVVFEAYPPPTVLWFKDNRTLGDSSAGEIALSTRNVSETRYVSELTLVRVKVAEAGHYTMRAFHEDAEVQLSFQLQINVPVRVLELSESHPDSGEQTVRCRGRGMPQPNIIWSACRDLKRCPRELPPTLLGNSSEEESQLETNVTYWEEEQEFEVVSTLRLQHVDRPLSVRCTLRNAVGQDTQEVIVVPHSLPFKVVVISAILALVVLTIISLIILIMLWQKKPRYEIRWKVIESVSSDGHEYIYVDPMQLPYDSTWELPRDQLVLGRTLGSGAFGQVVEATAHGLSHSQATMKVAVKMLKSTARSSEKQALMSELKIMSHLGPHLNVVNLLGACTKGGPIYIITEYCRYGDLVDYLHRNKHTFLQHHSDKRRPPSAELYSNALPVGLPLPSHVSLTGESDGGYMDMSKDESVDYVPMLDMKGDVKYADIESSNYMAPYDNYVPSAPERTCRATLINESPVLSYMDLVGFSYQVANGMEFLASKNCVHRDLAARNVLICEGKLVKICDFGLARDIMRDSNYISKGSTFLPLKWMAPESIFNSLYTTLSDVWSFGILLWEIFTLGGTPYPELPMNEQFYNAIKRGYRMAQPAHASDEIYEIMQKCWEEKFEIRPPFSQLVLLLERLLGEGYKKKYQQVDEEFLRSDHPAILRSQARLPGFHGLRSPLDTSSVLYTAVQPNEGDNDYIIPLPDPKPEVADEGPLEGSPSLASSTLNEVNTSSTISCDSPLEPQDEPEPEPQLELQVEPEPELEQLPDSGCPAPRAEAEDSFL
CDK5 (human), sequence (Q00535 whole entry, looked up): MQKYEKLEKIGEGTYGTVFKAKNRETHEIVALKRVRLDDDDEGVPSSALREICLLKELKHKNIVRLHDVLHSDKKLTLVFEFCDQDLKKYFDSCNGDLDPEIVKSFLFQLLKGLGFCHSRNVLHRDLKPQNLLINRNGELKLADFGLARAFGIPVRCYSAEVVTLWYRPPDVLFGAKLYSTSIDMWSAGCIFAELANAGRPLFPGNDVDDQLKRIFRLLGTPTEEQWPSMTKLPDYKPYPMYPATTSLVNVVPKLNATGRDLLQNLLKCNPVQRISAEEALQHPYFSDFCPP

kinase still bound, per cent of control (ACVR2A (human)) [%] | kinase still bound, per cent of control (AKT2 (human)) [%] | kinase still bound, per cent of control (ANKK1 (human)) [%] | kinase still bound, per cent of control (AURKB (human)) [%] | kinase still bound, per cent of control (CAMK2A (human)) [%] | kinase still bound, per cent of control (CDK15 (human)) [%] | kinase still bound, per cent of control (CDK17 (human)) [%] | kinase still bound, per cent of control (CDK5 (human)) [%] | kinase still bound, per cent of control (CLK2 (human)) [%] | kinase still bound, per cent of control (CSNK2A1 (human)) [%] | kinase still bound, per cent of control (DMPK (human)) [%] | kinase still bound, per cent of control [1] [%] | kinase still bound, per cent of control (EPHB1 (human)) [%] | kinase still bound, per cent of control (ERBB2 (human)) [%] | kinase still bound, per cent of control (ERBB4 (human)) [%] | kinase still bound, per cent of control (HCK (human)) [%] | kinase still bound, per cent of control (LATS2 (human)) [%] | kinase still bound, per cent of control (LCK (human)) [%] | kinase still bound, per cent of control (MAP2K4 (human)) [%] | kinase still bound, per cent of control (MAP3K11 (human)) [%] | SMILES | other results
100 | 100 | 100 | 100 | 100 | 100 | 100 | 100 | 100 | 100 | 100 | 100 | 1.8 | 100 | 100 | 100 | 100 | 1.9 | 100 | 100 | Cc1ccc(C(=O)Nc2cccc(C(F)(F)F)c2)cc1Nc1cncc(C(N)=O)c1 | kinase still bound, per cent of control (MAP3K9 (human)): 100%; kinase still bound, per cent of control (MAP4K5 (human)): 100%; kinase still bound, per cent of control (MAPK15 (human)): 100%; kinase still bound, per cent of control (MAPK9 (human)): 100%; kinase still bound, per cent of control (MINK1 (human)): 100%; kinase still bound, per cent of control (MKNK2 (human)): 100%; kinase still bound, per cent of control (MUSK (human)): 100%; kinase still bound, per cent of control (MYLK (human)): 100%; kinase still bound, per cent of control (NEK1 (human)): 100%; kinase still bound, per cent of control (NTRK1 (human)): 100%; kinase still bound, per cent of control (NTRK2 (human)): 32%; kinase still bound, per cent of control (PAK1 (human)): 100%; kinase still bound, per cent of control (PDGFRB (human)): 0.05%; kinase still bound, per cent of control (PRKACA (human)): 100%; kinase still bound, per cent of control (PRKACB (human)): 100%; kinase still bound, per cent of control (RPS6KA6 KD1 (human)): 100%; kinase still bound, per cent of control (SRPK1 (human)): 100%; kinase still bound, per cent of control (SRPK2 (human)): 100%; kinase still bound, per cent of control (STK17A (human)): 100%; kinase still bound, per cent of control (STK33 (human)): 100%
100 | 100 | 100 | 100 | 100 | 100 | 100 | 100 | 100 | 100 | 100 | 100 | 100 | 100 | 100 | 100 | 100 | 100 | 100 | 100 | COc1cc(C(=O)NC2CCN(C)CC2)ccc1Nc1ncc2c(n1)N(C1CCCC1)CCC(=O)N2C(C)C | kinase still bound, per cent of control (MAP3K9 (human)): 100%; kinase still bound, per cent of control (MAP4K5 (human)): 100%; kinase still bound, per cent of control (MAPK15 (human)): 100%; kinase still bound, per cent of control (MAPK9 (human)): 100%; kinase still bound, per cent of control (MINK1 (human)): 100%; kinase still bound, per cent of control (MKNK2 (human)): 100%; kinase still bound, per cent of control (MUSK (human)): 100%; kinase still bound, per cent of control (MYLK (human)): 100%; kinase still bound, per cent of control (NEK1 (human)): 100%; kinase still bound, per cent of control (NTRK1 (human)): 100%; kinase still bound, per cent of control (NTRK2 (human)): 100%; kinase still bound, per cent of control (PAK1 (human)): 100%; kinase still bound, per cent of control (PDGFRB (human)): 100%; kinase still bound, per cent of control (PRKACA (human)): 100%; kinase still bound, per cent of control (PRKACB (human)): 100%; kinase still bound, per cent of control (RPS6KA6 KD1 (human)): 100%; kinase still bound, per cent of control (SRPK1 (human)): 0%; kinase still bound, per cent of control (SRPK2 (human)): 100%; kinase still bound, per cent of control (STK17A (human)): 100%; kinase still bound, per cent of control (STK33 (human)): 32%
